Assay results reported in patent US10144742B2 (Millennium Pharmaceuticals, Inc., priority 2014, dated 2018).
Like-named read-outs stand apart in the source and are kept apart here.

Legend:
hNAMPT protein = hNAMPT protein (Homo sapiens (Human), UniProt P43490); assay: NAMPT enzyme assay (TR-FRET/HTRF, BodiPY ligand, anti 6His-Tb); format: binding; conditions: for IC50: read-out: IC50; for inhibition at 1 µM: read-out: Percent Inhibition
How it was run: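 TR-FRET binding assay in which His-tagged human NAMPT with anti-6His-Tb is displaced by compound from a BodiPY ligand, incubated 1 h at rt in the dark. Excitation was at 320 nm, with the 520/486 nm emission ratio read. IC50 was fitted from inhibition relative to DMSO controls.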

PC3 cells = assay: PC3 growth inhibition (Cell-titer glo, 72 hours); format: cell-based; conditions: Homo sapiens, read-out: Percent Inhibition (PC3 growth inhibition); for inhibition at 1.667 µM: compound concentration 1.667 μM
How it was run: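 PC3 cells in RPMI1640 seeded overnight at 37 °C, 5% CO2, then exposed to compound diluted in AIM serum-free medium for 72 h. Viability by CellTiter-Glo luminescence vs DMSO controls; single-concentration % remaining viability (1 μM or 1.667 μM), or GI50/LD50 from curves.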

[1] = PC-3, PC3 cells, 72 hours, Cell-titer glo
[2] = PC-3, compound concentration 1 μM, PC3 cells, 72 hours, Cell-titer glo
[3] = NAMPT inhibition at compound concentration 1 μM
[4] = NAMPT inhibition, IC50 range class

hNAMPT protein, sequence (P43490 whole entry): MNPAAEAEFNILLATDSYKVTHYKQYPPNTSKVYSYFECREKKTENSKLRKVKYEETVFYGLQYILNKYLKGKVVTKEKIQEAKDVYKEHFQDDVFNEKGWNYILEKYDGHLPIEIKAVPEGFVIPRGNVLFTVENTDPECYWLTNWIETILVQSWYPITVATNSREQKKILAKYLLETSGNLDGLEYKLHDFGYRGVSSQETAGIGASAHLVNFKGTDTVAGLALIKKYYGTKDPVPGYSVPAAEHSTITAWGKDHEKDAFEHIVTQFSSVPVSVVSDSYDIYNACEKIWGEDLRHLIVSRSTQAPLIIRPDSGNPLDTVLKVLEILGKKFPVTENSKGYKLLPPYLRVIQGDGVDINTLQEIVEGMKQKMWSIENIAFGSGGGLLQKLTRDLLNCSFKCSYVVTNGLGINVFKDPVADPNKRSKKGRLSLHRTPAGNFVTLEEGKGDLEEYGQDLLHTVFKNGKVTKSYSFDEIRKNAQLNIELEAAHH

SMILES	IC50 (hNAMPT protein; NAMPT IC50 range class) [nM]	inhibition at 1 µM (hNAMPT protein) [%]	inhibition at 1.667 µM (PC3 cells; [1]) [%]	inhibition at 1 µM (hNAMPT protein; compound concentration 1 μM) [%]	inhibition at 1 µM (PC3 cells; [2]) [%]	inhibition at 1 µM (hNAMPT protein; [3]) [%]	IC50 (hNAMPT protein; [4]) [nM]	inhibition at 1 µM (PC3 cells; PC-3, 72 h) [%]
O=C(NCCCc1ccnnc1)c1ccc2nc(N3CCOCC3)c(-c3ccc(F)cc3)nc2c1 [Compound I-47, 3-(4-Fluorophenyl)-2-(morpholin-4-yl)-N-[3-(pyridazin-4-yl)propyl]quinoxaline-6-carboxamide]	< 100	90	33	–	–	–	–	–
O=C(NCCCn1ccnc1)c1ccc2nc(N3CCOCC3)c(-c3ccccc3)nc2c1 [Compound I-96, N-[3-(1H-imidazol-1-yl)propyl]-2-(morpholin-4-yl)-3-phenylquinoxaline-6-carboxamide]	100 to 500	–	–	82	0	–	–	–
CN1CCC(COc2nc3ccc(C(=O)NCCCc4ncc[nH]4)cc3nc2-c2ccc(F)cc2)C1 (stereo not drawn) [Compound I-513, 3-(4-fluorophenyl)-N-[3-(1H-imidazol-2-yl)propyl]-2-[(1-methylpyrrolidin-3-yl)methoxy]quinoxaline-6-carboxamide]	–	–	3	–	–	99	< 100	–
NS(=O)(=O)c1ccc(-c2nc3ccc(C(=O)NCCCn4ccnc4)cc3nc2-c2ccccc2)cc1 [Compound I-145, N-[3-(1H-imidazol-1-yl)propyl]-3-phenyl-2-(4-sulfamoylphenyl)quinoxaline-6-carboxamide]	100 to 500	–	–	76	-7	–	–	–
Cc1cc(-c2nc3cc(C(=O)NCCCc4ncc[nH]4)ccc3nc2-c2ccc(F)cc2)cnc1Cl [Compound I-309, 3-(6-chloro-5-methylpyridin-3-yl)-2-(4-fluorophenyl)-N-[3-(1H-imidazol-2-yl)propyl]quinoxaline-6-carboxamide]	100 to 500	–	3	86	–	–	–	–
COc1cccc(-c2nc3cc(C(=O)NCCCc4ncc[nH]4)ccc3nc2N2CCC(O)CC2)c1 [Compound I-12, 2-(4-hydroxypiperidin-1-yl)-N-[3-(1H-imidazol-2-yl)propyl]-3-(3-methoxyphenyl)quinoxaline-6-carboxamide]	< 100	–	2	> 99	–	–	–	–
O=C(NCCc1c[nH]cn1)c1ccc2nc(-c3ccc(F)cc3)c(-c3ccc(F)cc3)nc2c1 [Compound I-20, 2,3-bis(4-fluorophenyl)-N-[2-(1H-imidazol-4-yl)ethyl]quinoxaline-6-carboxamide]	1000 to 2000	–	–	42	111	–	–	–
N#Cc1ccccc1-c1nc2ccc(C(=O)NCCCn3ccnc3)cc2nc1-c1ccccc1 [Compound I-54, 2-(2-cyanophenyl)-N-[3-(1H-imidazol-1-yl)propyl]-3-phenylquinoxaline-6-carboxamide]	500 to 1000	–	–	50	-7	–	–	–
O=C(NCc1ccc2[nH]cnc2c1)c1ccc2nc(N3CCOCC3)c(-c3ccc(F)cc3)nc2c1 [Compound I-132, N-(1H-Benzimidazol-5-ylmethyl)-3-(4-fluorophenyl)-2-(morpholin-4-yl)quinoxaline-6-carboxamide]	500 to 1000	56	2	–	–	–	–	–
O=C(NCCCc1ncc[nH]1)c1ccc2nc(-n3ccc4cnccc43)c(-c3ccc(F)cc3)nc2c1 [Compound I-389, 3-(4-fluorophenyl)-N-[3-(1H-imidazol-2-yl)propyl]-2-(1H-pyrrolo[3,2-c]pyridin-1-yl)quinoxaline-6-carboxamide]	< 100	–	2	93	–	–	–	–
CN(CCn1ccnc1)C(=O)c1ccc2nc(-c3ccc(F)cc3)c(-c3ccc(F)cc3)nc2c1 [Compound I-279, 2,3-bis(4-fluorophenyl)-N-[2-(1H-imidazol-1-yl)ethyl]-N-methylquinoxaline-6-carboxamide]	2000 to 10000	–	–	13	89	–	–	–
CC(=O)Nc1ccc(-c2nc3cc(C(=O)NCCCn4ccnc4)ccc3nc2-c2ccccc2)cc1 [Compound I-223, 3-(4-acetamidophenyl)-N-[3-(1H-imidazol-1-yl)propyl]-2-phenylquinoxaline-6-carboxamide]	2000 to 10000	–	–	10	103	–	–	–
O=C(NCCCn1ccnc1)c1ccc2nc(N3CCC3)c(-c3ccccc3)nc2c1 [Compound I-137, 2-(Azetidin-1-yl)-N-[3-(1H-imidazol-1-yl)propyl]-3-phenylquinoxaline-6-carboxamide]	2000 to 10000	18	–	–	–	–	–	6
O=C(NCCCc1ncc[nH]1)c1ccc2nc(N3CCC(N4CCOCC4)CC3)c(-c3ccc(Cl)cc3)nc2c1 [Compound I-255, 3-(4-chlorophenyl)-N-[3-(1H-imidazol-2-yl)propyl]-2-[4-(morpholin-4-yl)piperidin-1-yl]quinoxaline-6-carboxamide]	< 100	–	2	> 99	–	–	–	–
O=C(c1ccc2nc(-c3ccc(F)cc3)c(-c3ccc(F)cc3)nc2c1)N1CCc2[nH]ncc2C1 [Compound I-225, [2,3-bis(4-fluorophenyl)quinoxalin-6-yl](1,4,6,7-tetrahydro-5H-pyrazolo[4,3-c]pyridin-5-yl)methanone]	2000 to 10000	–	–	14	91	–	–	–
CC(C)Oc1nc2ccc(C(=O)NCCCc3ncc[nH]3)cc2nc1-c1ccc(Cl)s1 [Compound I-334, 3-(5-chloro-2-thienyl)-N-[3-(1H-imidazol-2-yl)propyl]-2-isopropoxyquinoxaline-6-carboxamide]	< 100	–	1	> 99	–	–	–	–
COc1cccc(-c2nc3cc(C(=O)NCCCc4ncc[nH]4)ccc3nc2N2CCCCC2)c1 [Compound I-183, N-[3-(1H-imidazol-2-yl)propyl]-3-(3-methoxyphenyl)-2-(piperidin-1-yl)quinoxaline-6-carboxamide]	< 100	–	2	> 99	–	–	–	–
CC(C)(C)OC(=O)NCc1cccc(-c2nc3ccc(C(=O)NCCCn4ccnc4)cc3nc2-c2ccccc2)c1 [Compound I-152, tert-butyl[3-(6-{[3-(1H-imidazol-1-yl)propyl]carbamoyl}-3-phenylquinoxalin-2-yl)benzyl]carbamate]	500 to 1000	–	–	62	3	–	–	–
O=C(NCCCn1ccnc1)c1ccc2nc(N3CC4CC3CO4)c(-c3ccccc3)nc2c1 (stereo not drawn) [Compound I-37, N-[3-(1H-imidazol-1-yl)propyl]-2-(2-oxa-5-azabicyclo[2.2.1]hept-5-yl)-3-phenylquinoxaline-6-carboxamide]	500 to 1000	–	–	65	-6	–	–	–
Cn1ccc(-c2nc3cc(C(=O)NCCCn4ccnc4)ccc3nc2-c2ccccc2)n1 [Compound I-215, N-[3-(1H-imidazol-1-yl)propyl]-3-(1-methyl-1H-pyrazol-3-yl)-2-phenylquinoxaline-6-carboxamide]	2000 to 10000	–	–	15	19	–	–	–
CS(=O)(=O)C1CCN(c2nc3cc(C(=O)NCCCn4ccnc4)ccc3nc2-c2ccccc2)C1 (stereo not drawn) [Compound I-101, N-[3-(1H-imidazol-1-yl)propyl]-3-[3-(methylsulfonyl)pyrrolidin-1-yl]-2-phenylquinoxaline-6-carboxamide]	2000 to 10000	–	–	16	7	–	–	–
O=C(NCCCc1ncc[nH]1)c1ccc2nc(N3CCSCC3)c(-c3ccc(F)cc3)nc2c1 [Compound I-256, 3-(4-fluorophenyl)-N-[3-(1H-imidazol-2-yl)propyl]-2-(thiomorpholin-4-yl)quinoxaline-6-carboxamide]	< 100	–	2	97	–	–	–	–
C[C@@H]1CN(c2nc3ccc(C(=O)NCCCc4ncc[nH]4)cc3nc2-c2ccc(F)cc2)C[C@H](C)O1 [Compound I-383, 2-[cis-2,6-dimethylmorpholin-4-yl]-3-(4-fluorophenyl)-N-[3-(1H-imidazol-2-yl)propyl]quinoxaline-6-carboxamide]	< 100	–	2	99	–	–	–	–
CC(=O)c1ccc(-c2nc3cc(C(=O)NCCCc4ncc[nH]4)ccc3nc2-c2ccc(F)cc2)s1 [Compound I-370, 3-(5-acetyl-2-thienyl)-2-(4-fluorophenyl)-N-[3-(1H-imidazol-2-yl)propyl]quinoxaline-6-carboxamide]	500 to 1000	–	3	64	–	–	–	–
O=C(NCCCc1ncc[nH]1)c1ccc2nc(-c3ccc(F)cc3)c(-c3ccc(F)c(Cl)c3)nc2c1 [Compound I-502, N-(3-(1H-imidazol-2-yl)propyl)-3-(3-chloro-4-fluorophenyl)-2-(4-fluorophenyl)quinoxaline-6-carboxamide]	–	–	2	–	–	97	< 100	–
Cn1cc2c(n1)CN(C(=O)c1ccc3nc(-c4ccc(F)cc4)c(-c4ccc(F)cc4)nc3c1)CC2 [Compound I-22, [2,3-bis(4-fluorophenyl)quinoxalin-6-yl](2-methyl-2,4,5,7-tetrahydro-6H-pyrazolo[3,4-c]pyridin-6-yl)methanone]	1000 to 2000	–	–	41	96	–	–	–
